Results published in article PMC8636635 (Communications Biology, 2021).

Target: Protein 3a (Severe acute respiratory syndrome coronavirus 2, UniProt P0DTC3)
Assay: two-electrode voltage clamp, X. laevis oocytes
Settings: read-out: % block at 10 μM

Protein 3a, sequence (P0DTC3 whole entry): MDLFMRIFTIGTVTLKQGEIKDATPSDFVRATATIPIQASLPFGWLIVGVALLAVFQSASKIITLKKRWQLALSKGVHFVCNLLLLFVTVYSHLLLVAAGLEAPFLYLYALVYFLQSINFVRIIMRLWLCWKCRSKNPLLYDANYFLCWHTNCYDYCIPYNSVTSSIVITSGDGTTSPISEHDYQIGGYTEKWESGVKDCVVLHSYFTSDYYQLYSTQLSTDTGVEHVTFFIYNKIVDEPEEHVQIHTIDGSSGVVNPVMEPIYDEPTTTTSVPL

Structure (SMILES): c1ccc2c(c1)Cc1ccccc1O2 [xanthene]
- inhibition at 10 µM: 20%
